Our source for the relative viability values is the supplement of paper PMC10307832.

Common to all, as to assay: relative viability (nuclei count vs DMSO), 5 days (fraction); higher = more cells survive
Compound in assay [1]: CC1=CC(=NN1)NC2=CC(=NC(=N2)/C=C/C3=CC=CC=C3)N4CCN(CC4)C + NC(=O)Nc1cc(-c2cccc(F)c2)sc1C(=O)N[C@H]1CCCNC1 [AZD7762] (partner 0.2 µM)
The method, boiled down: (§1)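 Each reported value is a median over duplicate plates. It expresses relative viability: treated-well nuclei count divided by vehicle-well nuclei count. Lung cancer cell lines in 1536-well plates were dosed by pin tool a day after seeding, alone with one drug or with a fixed anchor-drug dose plus five library-drug doses (not always all listed) in √10 steps, and nuclei were counted after 5 days.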

Compound in assay [2]: CC1=CC(=NN1)NC2=CC(=NC(=N2)/C=C/C3=CC=CC=C3)N4CCN(CC4)C + Nc1nc2[nH]cc(CCc3ccc(C(=O)N[C@@H](CCC(=O)O)C(=O)O)cc3)c2c(=O)[nH]1 [Pemetrexed] (partner 0.2 µM)
The method, boiled down:
as §1

Compound in assay [3]: CC1=CC(=NN1)NC2=CC(=NC(=N2)/C=C/C3=CC=CC=C3)N4CCN(CC4)C + O=C(c1cc(Cc2n[nH]c(=O)c3ccccc23)ccc1F)N1CCN(C(=O)C2CC2)CC1 [Olaparib] (partner 8 µM)
The method, boiled down: as §1

Compound in the assay “Obatoclax + Olaparib”: COC1=CC(c2cc3ccccc3[nH]2)=N/C1=C\c1[nH]c(C)cc1C [Obatoclax] + O=C(c1cc(Cc2n[nH]c(=O)c3ccccc23)ccc1F)N1CCN(C(=O)C2CC2)CC1 [Olaparib] (partner 8 µM)
The method, boiled down: as §1

Turning to NCI-H2342, the relative viability in assay [1] (first compound 0.08 µM) amounted to 0.368; in assay [1] (first compound 0.253 µM) it was 0.535; in assay [1] (first compound 0.8 µM) it was 0.589; in assay [1] (first compound 2.53 µM), 0.371; in assay [1] (first compound 8 µM), 0.256; in assay [2] (first compound 0.08 µM), 0.642. The relative viability in assay [2] (first compound 0.253 µM) was 0.81; in assay [2] (first compound 0.8 µM) it was 0.819; in assay [2] (first compound 2.53 µM), 0.769; in assay [2] (first compound 8 µM), 0.473; in assay [3] (first compound 0.08 µM) it was 0.411; in assay [3] (first compound 0.253 µM) it was 0.419. The relative viability in assay [3] (first compound 0.8 µM) was 0.417; in assay [3] (first compound 2.53 µM), 0.412; in assay [3] (first compound 8 µM), 0.268; with Obatoclax + Olaparib (first compound 0.01 µM) it was 0.419; in the assay with Obatoclax + Olaparib (first compound 0.03162 µM), 0.409; with Obatoclax + Olaparib (first compound 0.1 µM), 0.448. In addition, the results for the relative viability in the assay with Obatoclax + Olaparib (first compound 0.3162 µM) and in the assay with Obatoclax + Olaparib (first compound 1 µM) were 0.515 and 0.473, respectively.

In the case of NCI-H2347, the relative viability in assay [1] (first compound 0.08 µM) was found to be 0.544; in assay [1] (first compound 0.253 µM), 0.788; in assay [1] (first compound 0.8 µM), 0.911; in assay [1] (first compound 2.53 µM), 0.484; in assay [1] (first compound 8 µM), 0.32; in assay [2] (first compound 0.08 µM) it was 0.418. Besides, the relative viability was 0.415 in assay [2] (first compound 0.253 µM); 0.447 in assay [2] (first compound 0.8 µM); 0.397 in assay [2] (first compound 2.53 µM); 0.379 in assay [2] (first compound 8 µM); 0.553 in assay [3] (first compound 0.08 µM); 0.665 in assay [3] (first compound 0.253 µM). Also, the relative viability in assay [3] (first compound 0.8 µM) stood at 0.578; in assay [3] (first compound 2.53 µM), 0.565; in assay [3] (first compound 8 µM), 0.406; in the assay with Obatoclax + Olaparib (first compound 0.01 µM) it was 0.56; in the assay with Obatoclax + Olaparib (first compound 0.03162 µM), 0.572; with Obatoclax + Olaparib (first compound 0.1 µM) it was 0.528. Also, the relative viability with Obatoclax + Olaparib (first compound 0.3162 µM) amounted to 0.524; with Obatoclax + Olaparib (first compound 1 µM), 0.476.

Consider NCI-H2405, for which the relative viability in assay [1] (first compound 0.08 µM) came out at 0.742; in assay [1] (first compound 0.253 µM), 0.766; in assay [1] (first compound 0.8 µM) it was 0.768; in assay [1] (first compound 2.53 µM), 0.357; in assay [1] (first compound 8 µM) it was 0.118; in assay [2] (first compound 0.08 µM), 1.02. Moreover, the relative viability in assay [2] (first compound 0.253 µM) is 0.979; in assay [2] (first compound 0.8 µM) it was 1.04; in assay [2] (first compound 2.53 µM), 0.503; in assay [2] (first compound 8 µM), 0.162; in assay [3] (first compound 0.08 µM), 0.842; in assay [3] (first compound 0.253 µM), 0.937. Also, the relative viability is 0.93 in assay [3] (first compound 0.8 µM); 0.753 in assay [3] (first compound 2.53 µM); 0.183 in assay [3] (first compound 8 µM); 0.911 with Obatoclax + Olaparib (first compound 0.01 µM); 0.981 with Obatoclax + Olaparib (first compound 0.03162 µM); 0.935 with Obatoclax + Olaparib (first compound 0.3162 µM). The relative viability with Obatoclax + Olaparib (first compound 1 µM) is 0.734.

As for NCI-H3122, the relative viability in assay [1] (first compound 0.08 µM) worked out at 0.963; in assay [1] (first compound 0.253 µM), 0.943; in assay [1] (first compound 0.8 µM), 1; in assay [1] (first compound 2.53 µM), 0.944; in assay [1] (first compound 8 µM), 0.408; in assay [2] (first compound 0.08 µM), 0.2. The relative viability came to 0.203 in assay [2] (first compound 0.253 µM); 0.206 in assay [2] (first compound 0.8 µM); 0.186 in assay [2] (first compound 2.53 µM); 0.147 in assay [2] (first compound 8 µM); 0.568 in assay [3] (first compound 0.08 µM); 0.722 in assay [3] (first compound 0.253 µM). In addition, the relative viability in assay [3] (first compound 0.8 µM) amounted to 0.654; in assay [3] (first compound 2.53 µM) it was 0.62; in assay [3] (first compound 8 µM) it was 0.474; in the assay with Obatoclax + Olaparib (first compound 0.01 µM), 0.655; in the assay with Obatoclax + Olaparib (first compound 0.03162 µM), 0.517; with Obatoclax + Olaparib (first compound 0.1 µM), 0.642. Further, the relative viability in the assay with Obatoclax + Olaparib (first compound 0.3162 µM) amounted to 0.613; in the assay with Obatoclax + Olaparib (first compound 1 µM) it was 0.678.
